The nature of series [1]: In-vitro cornea permeability study (vertical diffusion apparatus). Particulars: for CPA levels detected on the other side of the cornea membrane (receiver chamber): compound applied to donor side of rabbit cornea membrane, GBR buffer pH 7.4, 37° C.; for cornea permeability: topical delivery to cornea. Format: in vitro ADME, rabbit. How it is done:
The compounds (2a) and (2g) were prepared in powder form by Inotek Pharmaceuticals Corp. (Lexington, Mass.). Low-permeability control compound atenolol and all other chemicals were purchased from Sigma (St. Louis, Mo.). The buffer used in the permeability assessment was a glutathione-bicarbonated Ringer's (GBR) solution (110 mM NaCl, 5 mM KCl, 1 mM NaH2PO4, 30 mM NaHCO3, 1 mM CaCl2, 0.75 mM Mg Cl2, 5 mM D-glucose, and 0.3 mM reduced glutathione), pH 7.4, which was freshly prepared on the day of the experiment and oxygenated with O2/CO2 (95:5) to pH 7.4.
The compounds (2a) and (2g) were reconstituted in saline and diluted (10-fold) into the assay at a final concentration between 50 μM and 2.6 mM. Male Dutch-belted pigmented rabbits (1.5-2.5 kg body weight, 3-3.5 months old) were purchased from Covance Research Products Inc. (Denver, Pa.). The animal handling performed in this study conformed to the Guiding Principles in the Care and Use of Animals (DHEW Publication, NIH 80-23). The rabbits were euthanized by CO2 asphyxiation, and the heads were transported on ice to a testing facility, where dissection of the eyes was performed.
The corneal tissues were excised and mounted on a Harvard vertical diffusion apparatus as shown in FIG. 3 with a diffusion area of 0.64 cm2. Preheated (37° C.), pH 7.4. GBR buffer was added to the mucosal (1.5 mL) and the serosal (1.5 mL) chambers. The diffusion apparatus was maintained at 37° C. throughout the entire transport experiment. Oxygenation and agitation were achieved by bubbling O2/CO2 (95:5) through each chamber at a rate of 5-6 bubbles per second. After the 30-minute equilibration, blank GBR buffer in the mucosal (donor) chamber was withdrawn and replaced with GBR assay buffer containing the compound (2a) or the compound (2g). The transport experiments lasted 2 hours and were performed in duplicate. Every 60 minutes, 0.2-mL samples were collected from the serosal (receiver) chamber and replenished with 0.2-mL blank GBR buffer, except at the last time point; at the end of the experiment, samples were also collected from the mucosal (donor) chambers for mass balance determination.
After the transport experiment, tissue integrity (system suitability) was assessed by measuring the permeation of a low permeability control compound, atenolol, across the tissue. Donor chamber contents were replaced with GBR buffer containing 100μM atenolol, and receiver chambers were replaced with fresh blank GBR buffer. After 30 minutes of incubation, samples were collected from both chambers for analysis. The post-experimental system suitability assessment was considered acceptable if duplicate measurements yielded a mean apparent permeability (Papp) value for atenolol <1·10^−6 cm/s.
Compound A and compounds (2a) and (2g) and atenolol concentrations in the donor and receiver chambers were analyzed by LC-MS/MS methods. Apparent permeability (Papp) values were calculated using the following equation: Papp=(dCr/dt)·Vr/(A·C0)
Where, dCr /dt was the slope of the linear portion of the cumulative concentration in the receiver compartment over time in μM/sec, Vr was the volume of the receiver chamber in cm^3, A was the diffusion area in cm^2, and C0 was the measured dosing concentration in μM.
Recovery was calculated using the following equation: Recovery=100·([…])/(Vd·C0)
Where, Vr was the volume of the receiver compartment in cm^3, Vd was the volume of the donor compartment in cm^3, C0 was the dosing concentration in μM, Cr^final was the cumulative receiver concentration in μM and Cd^final was the donor concentration in μM at the end of the incubation.

Series [2] can be described thus: Analysis of human plasma after topical administration of Compound A. The format is in vivo. The note with it: human subject, topical to the cornea, LC/MS/MS. As for the experimental part:
After the administration of Compound A topically to a cornea of a human, at selected time points (e.g., Day 1: pre-dose, 5, 15, 25, 35. and 45 min and 1, 2, 4, 8 and 24 hours) samples of whole blood (10 mL) were collected for pharmacokinetic assessments using a vacutainer tube containing sodium heparin as an anticoagulant, via catheter, saline lock, or by venipuncture. The blood components were separated by centrifugation at 4° C. following standard clinical laboratory procedures for preparation of plasma from whole blood (e.g., 3000 rpm for approximately 10 min). For each sample, approximately 1 mL of plasma was stored at −20° C. or colder until analysis for Compound A and CPA concentration. Human plasma samples were analyzed for Compound A concentrations using a validated liquid chromatography/tandem mass spectrometry (LC/MS/MS) method with a lower limit of quantitation (LLOQ) of 10.0 pg/mL and a linear range from 10.0 to 2000 pg/mL. Plasma concentrations of (N(6)-cyclopentyladenosine, CPA) were also measured in some samples using a validated LC/MS/MS method with a lower limit of quantitation of 10.0 pg/mL and a linear range from 10.0 to 2000 pg/mL.

In series [3] the test system is intraocular pressure. Description: IOP of human subjects after topical administration of Compound A to the cornea. Format: in vivo. From the text: As a result of this analysis, CPA has been identified as an active metabolite in clinical studies after the topical administration of Compound A to the cornea of human subjects.
Series [4] is described as follows: In vivo study of CPA concentration in the anterior chamber after topical administration to the cornea. The note with it: Dutch Belted rabbits, topical to the cornea (FIG. 4).
In series [5] the test system is intraocular pressure. Particulars: topical in DMSO, three mice, cited from earlier work.
Series [6] deals with intraocular pressure. The note with it: CPA 165 μg; cited from earlier work.
Series [7] relates to optic nerve head tissue blood flow. The note with it: 10 nmol, injected intravitreally, rabbits; cited from earlier work.

Molecules are shown by their SMILES. Where two headings read alike, the source gives them in different places.

With `CCCCCCCC(=O)OC[C@H]1O[C@@H](n2cnc3c(NC4CCCC4)ncnc32)[C@H](O)[C@@H]1O` [Compound 2g, N^6-Cyclopentyl-5′-O-octanoyl-adenosine], in series [1], the “CPA levels detected on the other side of the cornea membrane (receiver chamber)” value (“CPA levels detected on the other side” for short) is “significant levels of CPA were measureable” and the cornea permeability entry was “significant cornea permeability”.

As to `O=[N+]([O-])OC[C@H]1O[C@@H](n2cnc3c(NC4CCCC4)ncnc32)[C@H](O)[C@@H]1O` [Compound A, ((2R,3S,4R,5R)-5-(6-(cyclopentylamino)-9H-purin-9-yl)-3,4-dihydroxytetrahydrofuran-2-yl)methyl nitrate], the “CPA levels detected on the other side” value in series [1] is “significant levels of CPA on the other side of the cornea membrane”. Also, the “CPA in plasma after administration of Compound A” value in series [2] is reported as “detection of CPA in the plasma”. Besides, in series [3], the “IOP course after buildup of CPA in plasma” value is on record as “continues to decline” and the “transient elevation in IOP” value is recorded as “no transient elevation in IOP is seen”. The “concentration of CPA in the anterior chamber over time” value in series [4] was “build up in concentration of CPA in the anterior chamber over time”.

As to `CC(C)C(=O)OC[C@H]1O[C@@H](n2cnc3c(NC4CCCC4)ncnc32)[C@H](O)[C@@H]1O` [Compound 2a, N^6-Cyclopentyl-5′-O-isobutyryl-adenosine], in series [1], the “CPA levels detected on the other side” value was “significant levels of CPA were measureable” and the cornea permeability entry was “significant cornea permeability”.

As for `OC[C@H]1O[C@@H](n2cnc3c(NC4CCCC4)ncnc32)[C@H](O)[C@@H]1O` [CPA, N^6-cyclopentyladenosine], in series [1], the “CPA levels detected on the other side” value is recorded as “much less than that detected when Compound A is topically applied to the cornea” and the cornea permeability entry is given as “does not have sufficient cornea permeability”. The “concentration of CPA in the anterior chamber over time” value in series [4] is reported as “build up in concentration of CPA in the anterior chamber over time”. Further, the “change in IOP” value in series [5] (CPA at 100 nM) is listed as −6.8 mm Hg. Besides, the “change in IOP” value in series [5] (CPA at 1 mM) is −1.0 mm Hg. Moreover, the “effect on rabbit IOP” value in series [6] was “reduction of rabbit IOP”. Also, the “optic nerve head tissue blood flow” value in series [7] was “increased the optic nerve head tissue blood flow”.

The values are drawn from patent publication US9289383B2, “Method of reducing intraocular pressure in humans” (Inotek Pharmaceuticals Corporation, priority 2010, dated 2016).
